Reference: US4994440A, “Method for the treatment of renal cell carcinoma” (priority 1989, dated 1991)

Tested on: metastatic renal cell carcinoma
Assay: Treatment of patients with metastatic renal cell carcinoma by 1 hour infusion of the liposomal composition
Format: in vivo, man
Settings: a patient with renal cell carcinoma with multiple small pulmonary metastases
Description: 12 patients diagnosed as having metastatic renal cell carcinoma were given the liposomal composition in accordance with Example 2 at various dosage levels of the active ingredient by 1 hour infusion in 50 ml of isotonic saline through a safety filter twice a week for a total of 8 doses.

How did the size of lesions turn out when `CCCCCCCCCCCCCCCC(=O)OCC(COP(=O)([O-])OCCNC(=O)C(C)NC(=O)CCC(NC(=O)C(C)NC(=O)C(C)OC1C(O)C(CO)OC(O)C1NC(C)=O)C(N)=O)OC(=O)CCCCCCCCCCCCCCC.[Na+]` [N-acetylmuramyl-L-alanyl-D-isoglutaminyl-L-alanine-2-(1,2-dipalmitoyl-sn-glycero-3-hydroxyphosphoryloxy)ethylamide monosodium salt] was run?
The size of lesions was “reduce the size of lesions”.
